Laboratory results taken from patent publication US20260184663A1, “INDENE COMPOUNDS, PHARMACEUTICAL COMPOSITIONS THEREOF, AND THEIR THERAPEUTIC APPLICATIONS” (NucMito Pharmaceuticals co. Ltd., priority 2022, published 2026).
Like-named read-outs stand apart in the source and are kept apart here.

Legend:
Format in all cases: cell-based
HepG2 (liver cancer) = test: Antiproliferative activity (CCK-8 cell viability), HepG2; details: Homo sapiens, 72 h, read-out: Antiproliferative activity in cancerous cells, HepG2 (inhibition of cell growth); for inhibition at 3.3 µM: Compound concentration: 3.3 μM; for inhibition at 10 µM: Compound concentration: 10 μM
Procedure, shortened: (§1)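 Growth inhibition graded in bands from percent viability against DMSO vehicle, read as CCK-8 absorbance at 450 nm. Compound tested at 3.3, 10 or 30 μM for 72 h, 37 °C; media contained 10% FBS: DMEM for HepG2/SW480, MEM for HeLa, F-12K for A549.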

HeLa (cervical cancer) = test: Antiproliferative activity (CCK-8 cell viability), HeLa; details: Homo sapiens, 72 h, read-out: Antiproliferative activity in cancerous cells, HELA (inhibition of cell growth); for inhibition at 3.3 µM: Compound concentration: 3.3 μM; for inhibition at 10 µM: Compound concentration: 10 μM
Procedure, shortened: as §1

[1] = system: B16F10 (malignant melanoma); test: Antiproliferative activity (CCK-8 cell viability), B16F10; details: Mus musculus, 72 h, read-out: Antiproliferative activity in cancerous cells, B16F10 (inhibition of cell growth); for inhibition at 3.3 µM: B16-F10, Compound concentration: 3.3 μM; for inhibition at 10 µM: B16-F10, Compound concentration: 10 μM
Procedure, shortened: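 Cell growth inhibition was measured in B16F10 malignant melanoma cells with a Cell Counting Kit-8 viability assay. Cells were maintained in DMEM plus 10% fetal bovine serum, seeded at 2,000-5,000 cells/well in 96-well plates, and treated for 72 h at 37° C. Viability was expressed relative to DMSO-treated vehicle control wells.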

SW480 (colon cancer) = test: Antiproliferative activity (CCK-8 cell viability), SW480; details: Homo sapiens, 72 h; for inhibition at 3.3 µM: Compound concentration: 3.3 μM; for inhibition at 10 µM: Compound concentration: 10 μM; for inhibition at 30 µM: Compound concentration: 30 μM
Procedure, shortened: as §1

[2] = system: A431 (epidermoid carcinoma); test: Antiproliferative activity (CCK-8 cell viability), A431; details: Homo sapiens, 72 h; for inhibition at 3.3 µM: A-431, Compound concentration: 3.3 μM; for inhibition at 10 µM: A-431, Compound concentration: 10 μM; for inhibition at 30 µM: A-431, Compound concentration: 30 μM
Procedure, shortened: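 This growth inhibition assay used A431 cells maintained in Dulbecco's modified Eagle's medium plus 10% fetal bovine serum. Cells were seeded in 96-well plates, treated with compound for 72 h at 37° C., and then given 10 μL CCK-8 solution. After a further 4 h, absorbance was read at 450 nm.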

[3] = system: A549 (lung adenocarcinoma); test: Antiproliferative activity (CCK-8 cell viability), A549; details: Homo sapiens, 72 h, read-out: Antiproliferative activity in cancerous cells, A549 (inhibition of cell growth); for inhibition at 3.3 µM: Compound concentration: 3.3 μM; for inhibition at 10 µM: Compound concentration: 10 μM
Procedure, shortened: as §1

[4] = system: MDA-MB-231 (breast cancer); test: Antiproliferative activity (CCK-8 cell viability), MDA-MB-231; details: Homo sapiens, 72 h, read-out: Antiproliferative activity in cancerous cells, MDA-MB-231 (inhibition of cell growth); for inhibition at 3.3 µM: Compound concentration: 3.3 μM; for inhibition at 10 µM: Compound concentration: 10 μM
Procedure, shortened: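 Growth inhibition of human MDA-MB-231 breast cancer cells was assessed with a Cell Counting Kit-8. Cells cultured in DMEM plus 10% FBS were seeded at 2,000-5,000 cells/well, treated after attachment, and kept 72 h at 37° C. CCK-8 solution (10 μL) was added for 4 h, and absorbance at 450 nm was compared with DMSO-treated controls.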

[5] = read-out: Antiproliferative activity in cancerous cells, SW480 (inhibition of cell growth)
[6] = read-out: Antiproliferative activity in cancerous cells, A431 (inhibition of cell growth)
[7] = read-out: Antiproliferative activity in cancerous cells, SW480

Row | SMILES | inhibition at 3.3 µM (HepG2 (liver cancer)) [%] | inhibition at 10 µM (HepG2 (liver cancer)) [%] | inhibition at 3.3 µM (HeLa (cervical cancer)) [%] | inhibition at 10 µM (HeLa (cervical cancer)) [%] | inhibition at 3.3 µM [1] [%] | inhibition at 10 µM [1] [%] | inhibition at 3.3 µM (SW480 (colon cancer); [5]) [%] | inhibition at 10 µM (SW480 (colon cancer); [5]) [%] | inhibition at 3.3 µM [2, 6] [%] | inhibition at 10 µM [2, 6] [%] | inhibition at 3.3 µM [3] [%] | inhibition at 10 µM [3] [%] | inhibition at 3.3 µM [4] [%] | inhibition at 10 µM [4] [%] | inhibition at 30 µM (SW480 (colon cancer); [7]) [%] | also measured
1 | CC1=C(CC(=O)O)c2cc(F)ccc2/C1=C\c1cccc([S+]([O-])c2ccc(F)cc2)c1 (centres unmarked) [C43, (Z)-2-(5-Fluoro-1-(3-((4-fluorophenyl)sulfinyl)benzylidene)-2-methyl-1H-inden-3-yl)acetic acid] | < 30 | < 30 | < 30 | 30 to 50 | < 30 | < 30 | < 30 | < 30 | 30 to 50 | 30 to 50 | < 30 | 30 to 50 | 30 to 50 | ≥ 50 | – | inhibition at 30 µM ([2]; read-out: Antiproliferative activity in cancerous cells, A431): 30 to 50%
2 | CC1=C(CC(=O)O)c2cc(F)ccc2/C1=C\c1ccc(Oc2ccc(Cl)cc2)cc1 [C60, (Z)-2-(1-(4-(4-Chlorophenoxy)benzylidene)-5-fluoro-2-methyl-1H-inden-3-yl)acetic acid] | ≥ 50 | ≥ 50 | ≥ 50 | ≥ 50 | 30 to 50 | 30 to 50 | < 30 | < 30 | ≥ 50 | ≥ 50 | 30 to 50 | ≥ 50 | < 30 | < 30 | 30 to 50 | –
3 | CCc1ccc2c(c1)C(CC(=O)O)=C(C)/C2=C/c1ccc(CCc2ccccc2)cc1 [B157, (Z)-2-(5-Ethyl-2-methyl-1-(4-phenethylbenzylidene)-1H-inden-3-yl)acetic acid] | < 30 | ≥ 50 | < 30 | ≥ 50 | < 30 | ≥ 50 | ≥ 50 | ≥ 50 | 30 to 50 | ≥ 50 | 30 to 50 | ≥ 50 | < 30 | < 30 | – | –
4 | CC1=C(CC(=O)O)c2cc(F)ccc2/C1=C\c1ccc(COc2ccc(Cl)cc2)cc1Br [B72, (Z)-2-(1-(2-Bromo-4-((4-chlorophenoxy)methyl)benzylidene)-5-fluoro-2-methyl-1H-inden-3-yl)acetic acid] | ≥ 50 | ≥ 50 | ≥ 50 | ≥ 50 | ≥ 50 | ≥ 50 | 30 to 50 | 30 to 50 | ≥ 50 | ≥ 50 | ≥ 50 | ≥ 50 | 30 to 50 | 30 to 50 | 30 to 50 | –
5 | COc1ccc(S(=O)(=O)c2ccc(/C=C3/C(C)=C(CC(=O)O)c4cc(F)ccc43)cc2)cc1 [C41, (Z)-2-(5-Fluoro-1-(4-((4-methoxyphenyl)sulfonyl)benzylidene)-2-methyl-1H-inden-3-yl)acetic acid] | < 30 | ≥ 50 | < 30 | ≥ 50 | 30 to 50 | ≥ 50 | < 30 | ≥ 50 | 30 to 50 | ≥ 50 | < 30 | ≥ 50 | ≥ 50 | ≥ 50 | – | –
6 | CC1=C(CC(=O)O)c2ccc(Cl)cc2/C1=C\c1ccc(Oc2ccc(F)cc2)cc1 [C67, (Z)-2-(6-Chloro-1-(4-(4-fluorophenoxy)benzylidene)-2-methyl-1H-inden-3-yl)acetic acid] | 30 to 50 | ≥ 50 | < 30 | < 30 | < 30 | < 30 | 30 to 50 | 30 to 50 | 30 to 50 | ≥ 50 | < 30 | ≥ 50 | < 30 | ≥ 50 | – | –
7 | COc1cc(Oc2ccc(Cl)cc2)ccc1/C=C1/C(C)=C(CC(=O)O)c2cc(F)ccc21 [C58, (Z)-2-(1-(4-(4-Chlorophenoxy)-2-methoxybenzylidene)-5-fluoro-2-methyl-1H-inden-3-yl)acetic acid] | ≥ 50 | ≥ 50 | ≥ 50 | ≥ 50 | ≥ 50 | ≥ 50 | < 30 | < 30 | ≥ 50 | ≥ 50 | ≥ 50 | ≥ 50 | < 30 | < 30 | 30 to 50 | –
8 | COc1cc(Oc2ccc(/C=C3/C(C)=C(CC(=O)O)c4cc(F)ccc43)cc2)ccc1Cl [C71, (Z)-2-(1-(4-(4-Chloro-3-methoxyphenoxy)benzylidene)-5-fluoro-2-methyl-1H-inden-3-yl)acetic acid] | ≥ 50 | ≥ 50 | 30 to 50 | ≥ 50 | ≥ 50 | ≥ 50 | < 30 | ≥ 50 | ≥ 50 | ≥ 50 | < 30 | 30 to 50 | < 30 | 30 to 50 | – | –
9 | CC1=C(CC(=O)O)c2cc(F)ccc2/C1=C\c1ccc(OC2CCNCC2)cc1 [C202, (Z)-2-(5-Fluoro-2-methyl-1-(4-(piperidin-4-yloxy)benzylidene)-1H-inden-3-yl)-acetic acid] | < 30 | < 30 | < 30 | 30 to 50 | < 30 | < 30 | < 30 | < 30 | ≥ 50 | ≥ 50 | < 30 | < 30 | < 30 | < 30 | – | inhibition at 30 µM (HepG2 (liver cancer); Compound concentration: 30 μM): ≥ 50%; inhibition at 30 µM (HeLa (cervical cancer); Compound concentration: 30 μM): ≥ 50%; inhibition at 30 µM ([1]; B16-F10, Compound concentration: 30 μM): ≥ 50%; inhibition at 30 µM (SW480 (colon cancer); [5]): < 30%; inhibition at 30 µM [2, 6]: ≥ 50%; inhibition at 30 µM ([3]; Compound concentration: 30 μM): 30 to 50%; inhibition at 30 µM ([4]; Compound concentration: 30 μM): ≥ 50%
